Measured values as given in ChEMBL document CHEMBL5291721, “A preclinical secondary pharmacology resource illuminates target-adverse drug reaction associations of marketed drugs” (Nat Commun, 2023).

Experiments:
[1] = biological target: T1, Muscarinic acetylcholine receptor M2 (Homo sapiens, UniProt P08172)
T1 sequence (P08172 whole entry): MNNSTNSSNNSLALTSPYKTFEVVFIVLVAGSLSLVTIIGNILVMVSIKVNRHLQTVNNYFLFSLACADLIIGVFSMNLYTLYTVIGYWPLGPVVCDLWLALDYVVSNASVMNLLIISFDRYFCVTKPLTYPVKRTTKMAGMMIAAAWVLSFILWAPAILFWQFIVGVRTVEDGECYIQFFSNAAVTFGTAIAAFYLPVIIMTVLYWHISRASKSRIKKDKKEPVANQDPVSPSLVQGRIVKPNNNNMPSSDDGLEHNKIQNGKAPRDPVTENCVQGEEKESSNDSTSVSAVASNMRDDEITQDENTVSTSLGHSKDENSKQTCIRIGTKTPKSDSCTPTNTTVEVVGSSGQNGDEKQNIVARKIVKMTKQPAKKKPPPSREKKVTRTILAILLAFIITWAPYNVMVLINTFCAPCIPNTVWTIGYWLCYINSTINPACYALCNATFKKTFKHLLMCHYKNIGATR

Estrogen receptor = biological target: T2, Estrogen receptor (Homo sapiens, UniProt P03372)
T2 sequence (P03372 whole entry): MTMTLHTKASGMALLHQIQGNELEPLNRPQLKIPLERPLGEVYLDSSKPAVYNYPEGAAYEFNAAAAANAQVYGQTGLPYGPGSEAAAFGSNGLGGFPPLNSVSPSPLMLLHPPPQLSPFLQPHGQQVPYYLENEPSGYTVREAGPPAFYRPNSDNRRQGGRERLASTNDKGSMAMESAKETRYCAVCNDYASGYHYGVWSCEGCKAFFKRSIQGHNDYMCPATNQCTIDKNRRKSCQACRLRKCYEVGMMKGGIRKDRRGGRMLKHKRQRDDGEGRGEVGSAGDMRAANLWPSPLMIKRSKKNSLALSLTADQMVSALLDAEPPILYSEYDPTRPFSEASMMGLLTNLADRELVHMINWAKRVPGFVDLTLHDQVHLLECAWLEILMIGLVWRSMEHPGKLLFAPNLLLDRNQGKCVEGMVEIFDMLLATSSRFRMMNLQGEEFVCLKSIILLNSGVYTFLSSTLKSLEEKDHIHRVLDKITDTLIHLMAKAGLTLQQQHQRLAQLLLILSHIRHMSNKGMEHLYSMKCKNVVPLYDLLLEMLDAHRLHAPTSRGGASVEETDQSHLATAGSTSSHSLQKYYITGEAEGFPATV

[2] = biological target: T3, 5-hydroxytryptamine receptor 1A (Homo sapiens, UniProt P08908)
T3 sequence (P08908 whole entry): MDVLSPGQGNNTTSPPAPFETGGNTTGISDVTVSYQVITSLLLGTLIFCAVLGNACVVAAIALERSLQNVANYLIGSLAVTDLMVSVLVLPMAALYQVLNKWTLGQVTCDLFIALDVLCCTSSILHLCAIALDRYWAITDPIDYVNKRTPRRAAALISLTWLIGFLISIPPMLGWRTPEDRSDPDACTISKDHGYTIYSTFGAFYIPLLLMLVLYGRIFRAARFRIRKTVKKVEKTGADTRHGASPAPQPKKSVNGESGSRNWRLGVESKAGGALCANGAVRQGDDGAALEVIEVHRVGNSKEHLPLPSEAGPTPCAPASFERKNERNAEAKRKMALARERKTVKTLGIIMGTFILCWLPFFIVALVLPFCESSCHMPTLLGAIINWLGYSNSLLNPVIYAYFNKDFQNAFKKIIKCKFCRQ

[3] = biological target: Voltage-gated inwardly rectifying potassium channel KCNH2 (Homo sapiens, UniProt Q12809); assay type: functional; conditions: read-out: AC50
[4] = biological target: T4, Amine oxidase [flavin-containing] A (Homo sapiens, UniProt P21397); assay type: functional
T4 sequence (P21397 whole entry): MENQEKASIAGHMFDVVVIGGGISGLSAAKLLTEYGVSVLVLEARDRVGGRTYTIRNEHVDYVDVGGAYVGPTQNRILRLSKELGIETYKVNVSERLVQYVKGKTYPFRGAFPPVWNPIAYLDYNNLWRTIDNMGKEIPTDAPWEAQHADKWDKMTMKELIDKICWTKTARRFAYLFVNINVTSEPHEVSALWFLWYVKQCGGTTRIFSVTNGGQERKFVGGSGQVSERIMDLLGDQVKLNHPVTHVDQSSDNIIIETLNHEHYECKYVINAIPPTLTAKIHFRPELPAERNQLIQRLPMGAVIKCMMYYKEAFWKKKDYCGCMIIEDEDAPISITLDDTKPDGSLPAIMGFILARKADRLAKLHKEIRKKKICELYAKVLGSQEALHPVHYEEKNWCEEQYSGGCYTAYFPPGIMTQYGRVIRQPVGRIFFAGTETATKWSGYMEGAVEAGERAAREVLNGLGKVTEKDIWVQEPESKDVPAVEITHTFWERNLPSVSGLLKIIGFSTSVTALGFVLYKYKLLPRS

Progesterone receptor = biological target: T5, Progesterone receptor (Homo sapiens, UniProt P06401)
T5 sequence (P06401 whole entry): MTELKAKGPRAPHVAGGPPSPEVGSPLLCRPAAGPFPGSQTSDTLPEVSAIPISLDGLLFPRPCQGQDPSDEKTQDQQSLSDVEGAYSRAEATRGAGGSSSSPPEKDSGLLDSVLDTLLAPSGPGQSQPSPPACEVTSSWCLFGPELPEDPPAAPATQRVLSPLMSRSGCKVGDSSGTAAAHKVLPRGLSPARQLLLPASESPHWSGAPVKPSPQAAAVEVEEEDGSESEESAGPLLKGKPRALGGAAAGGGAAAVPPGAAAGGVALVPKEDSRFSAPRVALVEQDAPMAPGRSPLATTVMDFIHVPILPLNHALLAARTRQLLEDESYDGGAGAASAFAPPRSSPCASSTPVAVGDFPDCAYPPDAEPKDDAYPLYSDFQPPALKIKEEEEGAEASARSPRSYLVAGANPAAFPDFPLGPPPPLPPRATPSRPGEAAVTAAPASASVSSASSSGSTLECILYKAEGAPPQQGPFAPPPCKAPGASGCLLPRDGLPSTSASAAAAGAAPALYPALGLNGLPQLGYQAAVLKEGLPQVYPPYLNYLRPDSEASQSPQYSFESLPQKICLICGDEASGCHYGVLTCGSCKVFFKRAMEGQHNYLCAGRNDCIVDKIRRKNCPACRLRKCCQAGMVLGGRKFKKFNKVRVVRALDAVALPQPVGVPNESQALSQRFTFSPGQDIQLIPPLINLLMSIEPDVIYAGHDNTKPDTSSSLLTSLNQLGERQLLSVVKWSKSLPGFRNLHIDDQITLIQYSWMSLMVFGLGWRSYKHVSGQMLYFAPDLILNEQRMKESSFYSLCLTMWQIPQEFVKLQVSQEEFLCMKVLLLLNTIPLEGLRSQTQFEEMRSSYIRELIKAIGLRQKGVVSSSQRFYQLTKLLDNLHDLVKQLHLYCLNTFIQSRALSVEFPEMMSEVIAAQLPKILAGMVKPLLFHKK
Further: assay procedure not described here.

Voltage-gated inwardly rectifying potassium channel KCNH2, sequence (Q12809 whole entry): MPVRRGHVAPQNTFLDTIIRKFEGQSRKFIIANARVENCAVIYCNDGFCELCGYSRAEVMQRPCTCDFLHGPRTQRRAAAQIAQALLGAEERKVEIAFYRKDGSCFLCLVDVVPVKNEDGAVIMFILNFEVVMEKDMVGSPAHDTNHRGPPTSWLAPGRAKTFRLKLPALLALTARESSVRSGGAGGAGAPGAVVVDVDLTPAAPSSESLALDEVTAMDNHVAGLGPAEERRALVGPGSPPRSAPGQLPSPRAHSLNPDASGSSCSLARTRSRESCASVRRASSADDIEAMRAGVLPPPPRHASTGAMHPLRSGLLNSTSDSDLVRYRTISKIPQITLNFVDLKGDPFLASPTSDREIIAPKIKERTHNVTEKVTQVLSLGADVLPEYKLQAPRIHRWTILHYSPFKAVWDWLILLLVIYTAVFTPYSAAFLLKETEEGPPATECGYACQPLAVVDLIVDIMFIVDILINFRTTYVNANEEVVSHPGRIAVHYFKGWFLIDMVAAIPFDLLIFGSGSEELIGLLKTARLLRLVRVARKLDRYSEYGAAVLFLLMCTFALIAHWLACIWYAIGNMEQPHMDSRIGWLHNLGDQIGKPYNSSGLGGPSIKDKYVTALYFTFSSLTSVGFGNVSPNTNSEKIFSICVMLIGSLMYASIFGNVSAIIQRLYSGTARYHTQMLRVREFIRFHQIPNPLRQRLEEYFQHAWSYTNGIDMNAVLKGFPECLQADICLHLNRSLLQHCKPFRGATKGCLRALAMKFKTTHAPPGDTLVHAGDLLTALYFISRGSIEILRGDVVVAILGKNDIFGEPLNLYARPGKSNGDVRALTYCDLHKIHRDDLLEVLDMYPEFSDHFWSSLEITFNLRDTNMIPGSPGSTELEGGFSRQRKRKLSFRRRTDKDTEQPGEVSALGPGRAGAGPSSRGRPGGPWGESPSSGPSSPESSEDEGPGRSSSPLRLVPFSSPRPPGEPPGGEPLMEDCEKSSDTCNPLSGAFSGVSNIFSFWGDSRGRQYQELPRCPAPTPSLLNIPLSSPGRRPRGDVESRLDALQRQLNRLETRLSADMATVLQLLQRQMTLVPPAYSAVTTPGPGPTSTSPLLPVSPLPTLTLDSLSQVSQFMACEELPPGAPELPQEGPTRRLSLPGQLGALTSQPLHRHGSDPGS

Structure (SMILES)	AC50 [1] [µM]	AC50 (Estrogen receptor) [µM]	AC50 [2] [µM]	AC50 [3] [µM]	AC50 [4] [µM]	AC50 (Progesterone receptor) [µM]
COc1ncnc(NS(=O)(=O)c2ccc(N)cc2)c1OC [SULFADOXINE]	> 30	22.7	> 30	> 30	> 30	> 30
[H]/N=C(/N)NS(=O)(=O)c1ccc(N)cc1 [SULFAGUANIDINE]	> 30	> 30	> 30	> 30	> 30	> 30
CC(C)N1CCN(c2ccc(OCC3COC(Cn4cncn4)(c4ccc(Cl)cc4Cl)O3)cc2)CC1 (centres undefined) [TERCONAZOLE]	10.9	> 30	> 30	6.9	> 30	18.7
COc1cc(C[C@@H]2NCCc3cc(O)c(O)cc32)cc(OC)c1OC [TRETOQUINOL]	> 30	> 30	7.31	> 30	> 30	> 30
